Values of other authors in patent US7211580B2, “Compounds, compositions, and methods” (Cytokinetics, Incorporated, priority 2002, dated 2007).

Tested on: A549 cells
Conditions: concentration that decreases rate of cell growth by fifty percent

| Compound | GI50 [nM] |
| --- | --- |
| O=c1[nH]cc(F)c(=O)[nH]1 [5-fluorouracil] | 1000 |
| CC(=O)O[C@H]1C(=O)[C@@]2(C)[C@H]([C@H](OC(=O)c3ccccc3)[C@]3(O)C[C@H](OC(=O)[C@H](O)[C@@H](NC(=O)c4ccccc4)c4ccccc4)C(C)=C1C3(C)C)[C@]1(OC(C)=O)CO[C@@H]1C[C@@H]2O [paclitaxel] | 4 |
| COc1cccc2c1C(=O)c1c(O)c3c(c(O)c1C2=O)C[C@@](O)(C(=O)CO)C[C@@H]3O[C@H]1C[C@H](N)[C@H](O)[C@H](C)O1 [doxorubicin] | 63 |
| NC(=O)NO [hydroxyurea] | 500000 |
